The values that follow come from patent publication US20260042816A1, “TYROSINE KINASE INHIBITOR AND ACTIVIN TYPE 2 RECEPTOR ANTAGONIST COMBINATION THERAPY FOR TREATING PULMONARY ARTERIAL HYPERTENSION (PAH)” (GB002, INC., priority 2022, published 2026).

Test [1] deals with severe PAH in two animal models. The conditions noted are these: cited from earlier work.
The subject of test [2] is SuHx-mediated (SU5416 plus hypoxia) pulmonary hypertension. In words: SuHx (SU5416 plus hypoxia) rat model of PAH. The format is in vivo, male Sprague Dawley rats. The conditions noted are these: for decrease in Fulton's Index (RV hypertrophy measurement) / decrease in PVR Index / decrease in RVSP / decrease in mPAP: normalized to vehicle (1) and normal controls (0), day 49, after 4 weeks of treatment, Seralutinib 15 mg/kg inhalation BID and/or Sotatercept (as RAP-011) 5 mg/kg SC 2x/week; for lung histology (hematoxylin and eosin), pulmonary vessels: representative images, FIG. 2. The protocol:
PAH was induced in animal by a administering a single injection SU5416 (20 mg/kg) on day 0, followed by exposure of animals to hypoxia (10% oxygen) for 21 days. SuHx rats were divided in four groups and treated with i) Control: Seralutinib vehicle inhalation+Sotatercept vehicle injection (grey bar) or ii) Seralutinib 15 mg/kg, by inhalation, twice daily+Sotatercept vehicle, subcutaneous injection, twice a week (bar with horizontal pattern) or iii) Sotatercept 5 mg/kg subcutaneous injection, twice a week+Seralutinib vehicle, by inhalation, twice daily (bar with vertical line pattern) or iv) Seralutinib 15 mg/kg, by inhalation, twice daily+Sotatercept 5 mg/kg subcutaneous injection, twice a week (white bar); normoxia animals were used a healthy controls. Bar graph showing individual normalized data point for (A) Right ventricular systolic pressure (RVSP) (FIG. 1A), (B) mean pulmonary artery pressure (mPAP) (FIG. 1B), (C) right ventricular hypertrophy measured by fulton's index (FIG. 1C), and PVR index (FIG. 1D).
SuHx-mediated (SU5416 plus hypoxia) pulmonary hypertension was induced in male Sprague Dawley rats (see “Inhibition of the VEGF receptor 2 combined with chronic hypoxia causes cell death-dependent pulmonary endothelial cell proliferation and severe pulmonary hypertension”, Taraseviciene-Stewart et. al., FASEB J, 2001, 15, 427-438 and “TORREY, a Phase 2 study to evaluate the efficacy and safety of inhaled seralutinib for the treatment of pulmonary arterial hypertension”, Frantz R P, et. al., Pulmonary Circulation 2021; 11(4), 1-7). Semaxanib (SU5416) was administered to rats weighing 200-250 g as a single subcutaneous injection (20 mg/kg). Rats were housed for 3 weeks in 10% oxygen and subsequently re-exposed to normoxia during 4-week treatment period.
Rats underwent treatment for four weeks as described above, with treatment starting on day 22, after disease induction. After 4 weeks of treatment, the following parameters were evaluated: right ventricular systolic pressure (RVSP); Fulton index (weight ratio of right ventricle to the left ventricle and septum); and mean pulmonary arterial pressure (mPAP).
Animals from (Group 2-5) received a single subcutaneous injection of SU5416 (20 mg/kg) on Day 0 and exposed to hypoxia (10% O2) for 21 days followed by 4 weeks of normoxia. Group 1 animals (healthy group) remained in cages exposed to ambient oxygen (normoxic) levels for 49 days. Food and water were given ad libitum.
Treatment with inhaled seralutinib or vehicle, RAP-011 or mIgG2A was as described in Table 2.
Briefly, treatment with the aerosolized Seralutinib or vehicle was administrated for 45 minutes BID for 4 weeks starting day 22 (as outlined in Table 1) at an estimated dose to 15 mg/kg/dose using a Vilnius Aerosol Generator connected to an inhalation tower. The powder concentration was continuously monitored by portable aerosol monitor. Mercer-style cascade impactor was used to perform aerodynamic particle size distribution measurements. RAP-011 or mIgG was administered at 5 mg/kg dose via SC injection twice a week for 4 weeks starting day 22 as described in Table 2.
An echocardiogram monitoring of the progression of the disease was carried out on Day 21 (before treatment) and on surgery day (Day 49) for all groups. The results of the echocardiogram, from Day 21, was used to randomize the animals to ensure that only animals with severe enough disease are selected and that there is a similar disease stage across all groups.
On day 49, after 4 weeks of treatment, end of study procedures was performed: mean pulmonary arterial pressure (mPAP) and right ventricle systolic pressure (RVSP) were measured via an intra-ventricular fluid-filled catheter from AD instruments. Mean pulmonary arterial blood pressure values by using the formula mPAP=Diastolic Pressure+(Systolic Pressure−Diastolic Pressure)/3.

The subject of a further test is PAH patients. As to conditions: patients treated with standard-of-care therapies; cited from earlier work.

For `COc1ccc(-c2cncc(N[C@@H](C)c3cccc(NC(=O)c4cncc(C)c4)c3)n2)cc1OC` [Seralutinib, N-{3-[(1S)-1-{[6-(3,4-dimethoxyphenyl)pyrazin-2-yl]amino}ethyl]phenyl}-5-methylpyridine-3-carboxamide], the “efficacy compared to imatinib” value in test [1] (preclinical study) is recorded as “greater efficacy compared to imatinib”. Further, in test [1] (two animal models, improved hemodynamics, reduced NT-proBNP, reverse remodeling), the “efficacy of inhaled seralutinib in animal models of severe PAH” value is on record as “effective treatment of severe PAH”. Besides, in test [2], the “decrease in Fulton's Index (RV hypertrophy measurement)” value is recorded as 9%, the “decrease in PVR Index” value is 26%, the “decrease in RVSP” value worked out at 13% and the “decrease in mPAP” value worked out at 23%. The “lung histology (hematoxylin and eosin), pulmonary vessels” value in test [2] is recorded as “non-occluded pulmonary vessels similar to the healthy group”.
As for “Sotatercept: soluble fusion protein composed of the extracellular domain of the activin receptor type IIA (ActR IIA) linked to the Fc portion of human IgG1 [reference compound]”, in test [2], the “decrease in Fulton's Index (RV hypertrophy measurement)” value came out at 15%, the “decrease in PVR Index” value is recorded as 25%, the “decrease in RVSP” value was determined as 31% and the “decrease in mPAP” value is 28%. Further, the “lung histology (hematoxylin and eosin), pulmonary vessels” value in test [2] is reported as “non-occluded pulmonary vessels similar to the healthy group”. Besides, in the test with PAH patients, the “clinical effect in PAH patients” value is “beneficial effects”.
